Here are results for four compounds from US8895273B2, “Conversion of hexuronic acid to hexaric acid” (Teknologian Tutkimuskeskus VTT, priority 2008, dated 2014).

In series [1] the target is T1, D-galacturonic acid dehydrogenase (uronate dehydrogenase, EC 1.1.1.203, uro1) (Agrobacterium fabrum, UniProt Q7CRQ0).
T1 construct: histidine-tag (His6); made in house; host or cells: Saccharomyces cerevisiae CEN.PK; purified on Ni-NTA-agarose
The experiment in a line: Michaelis-Menten characterization of the purified histidine-tagged D-galacturonic acid dehydrogenase (uro1). The class given is biochemical, Agrobacterium tumefaciens. Conditions: for enzyme activity with the substrate: purified histidine-tagged protein. How it is done: (§1) The S. cerevisiae strain resulting from the Example 1 was then disintegrated by vortexing with glass beads and the yeast extract analysed for D-galacturonic acid dehydrogenase activity. In a control experiment a similar strain but with an empty plasmid was used. To assay the D-galacturonic acid dehydrogenase activity the crude cell extract was mixed with 0.5 mM NAD and 4 mM D-galacturonic acid in a 50 mM Tris pH 7.5 buffer containing 0.5 mM MgCl2. The activity was 0.12 units per mg of extracted protein. One unit is the activity that forms 1 μmol of product per minute. In the control strain no activity could be detected.
(§2) The D-galacturonic acid dehydrogenase with a histidine-tag at the N-terminal end was produced in a similar manner as in the Example 1, except that the histidine-tag was introduced by PCR. To introduce the histidine tag the following primers were used 5′-[…]-3′ (SEQ ID NO:5) in sense direction and 5′-[…]-3′ (SEQ ID NO:6) in anti-sense.
(§3) After the expression of the histidine-tagged protein in S. cerevisiae as described in the Example 1 the activity was measured as described in the Example 2. […] The histidine-tagged D-galacturonic acid dehydrogenase was then purified using a Ni-NTA-agarose (Qiagen) according to the instructions of the manufacturer. The purified enzyme gave a single band in an SDS PAGE.
(§4) The purified protein was then used to estimate the Michaelis-Menten constants.

In series [2] the target is T2, uronate dehydrogenase from Pseudomonas (GenBank EU377538) (Pseudomonas syringae pv. tomato, UniProt Q888H1).
T2 construct: The open reading frame was released by digestion with NcoI and SpeI; made in house; host or cells: Saccharomyces cerevisiae CEN.PK (crude cell extract)
T2 sequence (Q888H1 whole entry): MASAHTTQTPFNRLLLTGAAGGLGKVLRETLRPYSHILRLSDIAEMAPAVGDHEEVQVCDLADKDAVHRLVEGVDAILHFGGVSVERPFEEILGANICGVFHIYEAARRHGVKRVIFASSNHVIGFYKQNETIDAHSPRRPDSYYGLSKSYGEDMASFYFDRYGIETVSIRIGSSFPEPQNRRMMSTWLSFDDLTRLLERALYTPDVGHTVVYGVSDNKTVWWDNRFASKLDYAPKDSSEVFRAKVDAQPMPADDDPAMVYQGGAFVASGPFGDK
The experiment in a line: Enzyme activity of uronate dehydrogenase from Pseudomonas expressed in S. cerevisiae. Conditions: yeast extract, with NAD, tested as in Example 2. The class given is biochemical, Pseudomonas syringae pv. tomato str. DC3000. How it is done: as §1
The DNA coding for uronate dehydrogenase was custom-synthesised by GENEART. The codes for the same amino acid as the gene with the GenBank accession number EU377538. The DNA sequence is in the Sequence Listing SEQ ID NO: 19. It codes for the amino acid sequence SEQ ID NO:20.
The open reading frame was released by digestion with NcoI and SpeI. The resulting fragment was then ligated to the NcoI and NheI sites of the pYX212 (R&D Systems) which is a multicopy yeast expression vector with PGK1 promoter and URA3 selection marker. The resulting vector was then transfected to the S. cerevisiae strain CEN.PK as in the Example 1. The enzyme activity was then tested as in Example 2.

Series [3] has as its system O=C[C@H](O)[C@@H](O)[C@H](O)[C@H](O)C(=O)O. The experiment in a line: Michaelis-Menten characterization of the purified histidine-tagged D-galacturonic acid dehydrogenase (uro1). The class given is biochemical, Agrobacterium tumefaciens. The following applies: other: purified histidine-tagged enzyme; Michaelis-Menten constant of the substrate/cofactor; pH 7.5. The procedure:
as §1, §2, §3, §4

Series [4] deals with O=C[C@H](O)[C@@H](O)[C@@H](O)[C@H](O)C(=O)O. The series is described as above. The class given is biochemical, Agrobacterium tumefaciens. Conditions: other: purified histidine-tagged enzyme; Michaelis-Menten constant of the substrate/cofactor; pH 7.5. The procedure:
as §1, §2, §3, §4

T1 sequence (Q7CRQ0 whole entry, added parts left off): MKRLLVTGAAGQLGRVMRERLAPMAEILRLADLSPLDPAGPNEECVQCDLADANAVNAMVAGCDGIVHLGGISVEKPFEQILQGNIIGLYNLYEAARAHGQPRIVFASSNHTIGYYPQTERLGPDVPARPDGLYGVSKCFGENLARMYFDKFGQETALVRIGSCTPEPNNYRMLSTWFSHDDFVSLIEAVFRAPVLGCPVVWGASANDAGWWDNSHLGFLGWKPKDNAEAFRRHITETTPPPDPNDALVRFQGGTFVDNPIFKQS

On to `O=C[C@H](O)[C@@H](O)[C@@H](O)[C@H](O)C(=O)O` [D-galacturonic acid], for which the “enzyme activity with the substrate” value was “active” in series [1] and “showed activity” in series [2].
In the same order, the values of `O=C[C@H](O)[C@@H](O)[C@H](O)[C@H](O)C(=O)O` [GlcUA, D-glucuronic acid] are “active” and “showed activity”.
For the compound `NC(=O)c1ccc[n+]([C@@H]2O[C@H](COP(=O)([O-])OP(=O)(O)OC[C@H]3O[C@@H](n4cnc5c(N)ncnc54)[C@H](O)[C@@H]3O)[C@@H](O)[C@H]2O)c1` [NAD], the Km in series [1] (purified histidine-tagged enzyme, Michaelis-Menten constant of the substrate/cofactor) stood at 900 µM. Further, the Vmax in series [1] (purified histidine-tagged enzyme, one unit forms 1 μmol of product per minute) was 145 units per mg of protein.
As for “D-galacturonic acid dehydrogenase (uronate dehydrogenase, EC 1.1.1.203, uro1) (Agrobacterium fabrum str. C58)”, in series [3], the Km came to 1100 µM and the Vmax is 221 units per mg of protein. In series [4], the Km came to 500 µM and the Vmax is listed as 124 units per mg of protein.

By Km is commonly meant the concentration of substrate that gives half-maximal velocity.
